Experimental findings from PubChem BioAssay AID330 (DTP/NCI, 2004) are described below.

In this test the test system is P388 leukemia ip, CD2F1 mice, survival T/C. As to the kind of experiment: NCI In Vivo Anticancer Drug Screen. Data for tumor model P388 Leukemia (intraperitoneal) in CD2F1 (CDF1) mice. The following applies: endpoint: median survival time, higher = longer survival. The procedure, abridged:
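Mice carrying the transplanted tumor received test compound or vehicle. Survival was recorded in each group, and the value is the treated-group measurement divided by that of the vehicle-treated control group.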

Where [1] appears, read: dose: 100.0 mg/kg/injection, schedule: Q01DX001 (ip), vehicle: saline with Tween-80.
Where [2] appears, read: dose: 200.0 mg/kg/injection, schedule: Q01DX001 (ip), vehicle: saline with Tween-80.
The mark [3] stands for this setting: dose: 50.0 mg/kg/injection, schedule: Q01DX005 (ip), vehicle: Klucel (hydroxypropylcellulose) (HPC).
Setting [4] is: dose: 100.0 mg/kg/injection, schedule: Q01DX005 (ip), vehicle: Klucel (hydroxypropylcellulose) (HPC).
Where [5] appears, read: dose: 200.0 mg/kg/injection, schedule: Q01DX005 (ip), vehicle: Klucel (hydroxypropylcellulose) (HPC).
[6] abbreviates: dose: 50.0 mg/kg/injection, schedule: Q01DX001 (ip), vehicle: saline with Tween-80.
Setting [7] is: dose: 50.0 mg/kg/injection, schedule: Q01DX005 (ip), vehicle: saline with Tween-80.
Where [8] appears, read: dose: 100.0 mg/kg/injection, schedule: Q01DX005 (ip), vehicle: saline with Tween-80.
Setting [9] is: dose: 30.0 mg/kg/injection, schedule: Q01DX005 (ip), vehicle: saline.
Setting [10] is: dose: 60.0 mg/kg/injection, schedule: Q01DX005 (ip), vehicle: saline.
Where [11] appears, read: dose: 25.0 mg/kg/injection, schedule: Q01DX009 (ip), vehicle: saline with Tween-80.

SMILES strings stand for the structures. Where “and” joins values, the source holds several entries; their conditions need not be identical. Equal entries are not always repeated. Toxic doses and inconclusive results are not listed.

In the case of `COc1ccc(/C=N/N=c2/sc3ccccc3n2CC(=O)O)cc1`, the T/C is, setting by setting: under setting [1], 108 % of control; under setting [2], 87 % of control.
As for `CC1(C)C(=O)/C(=C/c2ccccc2N)Cc2ccccc21`, the T/C under setting [3] is 90 % of control, the T/C under setting [4] was 107 % of control and the T/C under setting [5] is 102 % of control.
`NNc1nccnc1Cl`: the T/C under setting [6] is 102 % of control, the T/C under setting [1] was 97 % of control and the T/C under setting [2] was 108 % of control.
`C=C1C[C@@]2(OC)OCC[C@H]3C(C)=CCC(C1=O)[C@]32C(=O)OC` (stereo partly specified): the T/C is 105 % of control under setting [7] and 105 % of control under setting [8].
On to `O=C(CNCCCCNCCCNCC(=O)C(O)C(O)C(O)CO)C(O)C(O)C(O)CO` (stereo unspecified), for which the T/C reads like this: under setting [9], 104 % of control; under setting [10], 101 % of control.
As to `O=C(NCc1nc2ncc(Br)cc2[nH]1)c1ccccc1`, the T/C runs as follows: under setting [1], 100 % of control; under setting [2], 100 % of control; (dose: 400.0 mg/kg/injection, schedule: Q01DX001 (ip), vehicle: saline with Tween-80) 98 % of control.
As for `C[Si](C)(C)CNCc1ccccc1`, the T/C was 108 % of control (dose: 15.0 mg/kg/injection, schedule: Q01DX005 (ip), vehicle: saline); 105 % of control under setting [9]; 102 % of control and 97 % of control under setting [10].
In the case of `C(=Nc1ccccc1-c1ccccc1N=Cc1ccccc1)c1ccccc1`, the T/C runs as follows: (dose: 1.56 mg/kg/injection, schedule: Q01DX009 (ip), vehicle: saline) 100 % of control and 91 % of control; (dose: 3.12 mg/kg/injection, schedule: Q01DX009 (ip), vehicle: saline) 91 % of control; (dose: 6.25 mg/kg/injection, schedule: Q01DX009 (ip), vehicle: saline with Tween-80) 104 % of control; (dose: 6.25 mg/kg/injection, schedule: Q01DX009 (ip), vehicle: saline) 88 % of control and 93 % of control; under setting [11], 86 % of control; (dose: 100.0 mg/kg/injection, schedule: Q01DX009 (ip), vehicle: saline) 96 % of control. Besides, the T/C (dose: 200.0 mg/kg/injection, schedule: Q01DX009 (ip), vehicle: saline) was 89 % of control.
For the molecule `CC(C)C(NC(=O)C1CCCN1)P(=O)(O)O` (stereo unspecified), the T/C runs as follows: under setting [10], 101 % of control; (dose: 120.0 mg/kg/injection, schedule: Q01DX005 (ip), vehicle: saline) 104 % of control; (dose: 240.0 mg/kg/injection, schedule: Q01DX005 (ip), vehicle: saline) 104 % of control.
Take `Cc1ccc(C(SCC(N)C(=O)O)(c2ccccc2)c2ccccc2)cc1` (stereo unspecified): the T/C runs as follows: (dose: 12.5 mg/kg/injection, schedule: Q01DX009 (ip), vehicle: saline with Tween-80) 186 % of control; under setting [11], 168 % of control; (dose: 50.0 mg/kg/injection, schedule: Q04DX003 (ip), vehicle: saline with Tween-80) 177 % of control; (dose: 100.0 mg/kg/injection, schedule: Q04DX003 (ip), vehicle: saline with Tween-80) 218 % of control; (dose: 132.0 mg/kg/injection, schedule: Q04DX003 (ip), vehicle: saline with Tween-80) 195 % of control; (dose: 200.0 mg/kg/injection, schedule: Q04DX003 (ip), vehicle: saline with Tween-80) 254 % of control and 272 % of control. The T/C (dose: 300.0 mg/kg/injection, schedule: Q04DX003 (ip), vehicle: saline with Tween-80) is 263 % of control.
As for `Nc1nnc(/C=C/c2ccc(Cl)c(Cl)c2)o1`, the T/C (dose: 60.0 mg/kg/injection, schedule: Q01DX005 (ip), vehicle: saline with Tween-80) was 95 % of control; the T/C (dose: 120.0 mg/kg/injection, schedule: Q01DX005 (ip), vehicle: saline with Tween-80) was 103 % of control; the T/C (dose: 240.0 mg/kg/injection, schedule: Q01DX005 (ip), vehicle: saline with Tween-80) is 102 % of control.
For `COC(=O)/C(=C\Sc1ccccc1)NC(C)=O`, the T/C reads like this: (dose: 60.0 mg/kg/injection, schedule: Q01DX005 (ip), vehicle: Klucel (hydroxypropylcellulose) (HPC)) 100 % of control; (dose: 120.0 mg/kg/injection, schedule: Q01DX005 (ip), vehicle: Klucel (hydroxypropylcellulose) (HPC)) 98 % of control; (dose: 240.0 mg/kg/injection, schedule: Q01DX005 (ip), vehicle: Klucel (hydroxypropylcellulose) (HPC)) 107 % of control.
Take `CC1CN=C(c2ccc(NC(=O)c3cccc(C(=O)Nc4ccc(C5=NCC(C)N5)cc4)c3)cc2)N1` (stereo unspecified): the T/C was 118 % of control (dose: 12.0 mg/kg/injection, schedule: Q01DX010 (ip), vehicle: saline); 154 % of control (dose: 18.0 mg/kg/injection, schedule: Q01DX010 (ip), vehicle: saline); 159 % of control (dose: 27.0 mg/kg/injection, schedule: Q01DX010 (ip), vehicle: saline); 172 % of control (dose: 40.0 mg/kg/injection, schedule: Q01DX010 (ip), vehicle: saline).
Take `CCNCc1nc2sc3c(c2c(=O)[nH]1)CCCC3`: the T/C reads like this: (dose: 50.0 mg/kg/injection, schedule: Q01DX009 (ip), vehicle: saline with Tween-80) 105 % of control; (dose: 100.0 mg/kg/injection, schedule: Q01DX009 (ip), vehicle: saline with Tween-80) 94 % of control; (dose: 200.0 mg/kg/injection, schedule: Q01DX009 (ip), vehicle: saline with Tween-80) 99 % of control.
Consider `Nc1ccc(S(=O)(=O)Nc2ccccc2O)cc1`, for which the T/C is, setting by setting: (dose: 3.12 mg/kg/injection, schedule: Q01DX001 (ip), vehicle: saline with Tween-80) 99 % of control; (dose: 6.25 mg/kg/injection, schedule: Q01DX001 (ip), vehicle: saline with Tween-80) 106 % of control; (dose: 12.5 mg/kg/injection, schedule: Q01DX001 (ip), vehicle: saline with Tween-80) 97 % of control; (dose: 25.0 mg/kg/injection, schedule: Q01DX001 (ip), vehicle: saline with Tween-80) 94 % of control; under setting [6], 100 % of control.
Take `COc1ccc(C(=O)N2C3C4C=CC(C4)C3N2C(=O)c2ccc(OC)cc2)cc1` (stereo unspecified): the T/C is 99 % of control (dose: 25.0 mg/kg/injection, schedule: Q01DX005 (ip), vehicle: Klucel (hydroxypropylcellulose) (HPC)); 92 % of control and 93 % of control under setting [3]; 95 % of control under setting [4]; 88 % of control under setting [5].
For `COc1cccc2c1C(=O)c1c(O)c3c(c(O)c1C2=O)C[C@@](O)(C(=O)CN1CCOCC1)C[C@@H]3OC1CC(N)C(O)C(C)O1` (stereo partly specified), the T/C is 116 % of control (dose: 1.3 mg/kg/injection, schedule: Q01DX001 (ip), vehicle: water); 103 % of control (dose: 1.56 mg/kg/injection, schedule: Q01DX009 (ip), vehicle: water); 114 % of control (dose: 1.8 mg/kg/injection, schedule: Q01DX001 (ip), vehicle: water); 116 % of control (dose: 2.4 mg/kg/injection, schedule: Q01DX001 (ip), vehicle: water); 115 % of control (dose: 3.13 mg/kg/injection, schedule: Q01DX009 (ip), vehicle: water); 119 % of control (dose: 3.2 mg/kg/injection, schedule: Q01DX001 (ip), vehicle: water). Also, the T/C runs as follows: (dose: 4.2 mg/kg/injection, schedule: Q01DX001 (ip), vehicle: water) 119 % of control; (dose: 5.56 mg/kg/injection, schedule: Q01DX009 (ip), vehicle: water) 156 % of control; (dose: 8.33 mg/kg/injection, schedule: Q01DX009 (ip), vehicle: water) 162 % of control; (dose: 10.0 mg/kg/injection, schedule: Q01DX001 (ip), vehicle: water) 119 % of control; (dose: 18.8 mg/kg/injection, schedule: Q01DX009 (ip), vehicle: water) 153 % of control; (dose: 50.0 mg/kg/injection, schedule: Q01DX001 (ip), vehicle: water) 162 % of control. The T/C (dose: 100.0 mg/kg/injection, schedule: Q01DX001 (ip), vehicle: water) was 174 % of control.
For the molecule `COC(=O)/C=C1/C2C=CC(O2)C1C(=O)OC` (stereo unspecified), the T/C is 96 % of control under setting [7]; 99 % of control under setting [8]; 97 % of control (dose: 200.0 mg/kg/injection, schedule: Q01DX005 (ip), vehicle: saline with Tween-80).
As to `COC(=O)/C=C/c1cc[n+]([O-])cc1`, the T/C (dose: 50.0 mg/kg/injection, schedule: Q01DX005 (ip), vehicle: saline) was 93 % of control; the T/C (dose: 100.0 mg/kg/injection, schedule: Q01DX005 (ip), vehicle: saline) is 101 % of control; the T/C (dose: 200.0 mg/kg/injection, schedule: Q01DX005 (ip), vehicle: saline) is 101 % of control.
